The values that follow are results of earlier work, collected in US20220168121A1, “FIBROSIS-INDUCING DRUG-ELUTING STENT FOR BLOCKING ELECTRIC CONDUCTION” (SUNGKWANG MEDICAL FOUNDATION, priority 2019, published 2022).

Structures can show the parent of a compound that is named as a salt.

`CCCCC(CC)CCC(CC(C)C)OS(=O)(=O)O` (stereo not drawn) [sodium tetradecyl sulfate]: the water solubility entry is “water soluble”. For the same compound, where the note is “solid state”, the “stability in a solid state” value is on record as “unstable properties in a solid state”.

Regarding `CCCCCCCCCCCCCCOS(=O)(=O)O` [sodium tetradecyl sulfate], the water solubility entry is reported as “water insoluble”.
